Data set [1] in a line: In vivo PET/CT of vascular inflammation in atherosclerotic mice. The note with it: female, mouse, ascending aorta, iv, 5.55 MBq, total radioactivity, tracer circulated 60 min, median, N = 4, read-out: SUVmax ascending aorta. As for the experimental part:
(§1) Animals were housed under a constant room temperature at 25 ± 2 °C and 50 ± 5% humidity with a 12-h daylight period and 12-h darkness period, with free access to water. For the mouse atherosclerosis model, 8-weeks old female Apoe^−/− mice (N = 51) were purchased from Jackson Laboratories (Bar Harbor, ME) and, after a 48 h acclimatization period, were fed a Western Diet (42% Kcal from fat TD88137, Envigo, Huntingdon, UK) for 12 weeks. 16–20 weeks old female C57Bl/6 controls (N = 67) were kept on regular chow diet. The myocardial infarction group consisted 16–20 weeks old female C57Bl/6 mice (N = 18) purchased from Jackson Laboratories and subjected to ligation of the left anterior descending artery, as previously described.
(§2) For the PET/CT experiments, mice were fasted for 12 h before radiotracer injection and anesthetized with xylazine (10 mg/kg) and ketamine (100 mg/kg) through intraperitoneal injection prior to radiotracer administration. Subsequently they were injected via the lateral tail vein with approximately 22.2 MBq of [^18F]F-FDG or 5.55 MBq of [^64Cu]Cu-DOTATATE. Tracers were allowed to circulate for 60 min. Immediately before imaging, mice were placed under 1% isoflurane (BaxterHealthcare, Deerfield, IL), and subsequently imaged on a high resolution (700 µm) Mediso nanoScan PET/CT scanner (Mediso, Budapest, Hungary). CT scan was acquired at 50 kVp and 300 ms exposure per projection. eXIA160 (Binitio, Ontario, Canada) was used as a contrast agent to improve imaging of the vasculature by intravenous administration of 100 μl per mouse 5 min prior to CT acquisition. PET acquisition time was 40 min. Reconstruction was performed using TeraTomo 3D reconstruction engine, for 8 iterations and 6 subsets per iteration for both tracers. The voxel size was isotropic at 0.3 mm. Immediately after the PET/CT scan, animals were euthanized for ex vivo assays.
(§3) Using OsiriX v5.6 software (OsiriX Foundation, Geneva, Switzerland), regions of interest (ROIs) were drawn to determine organ radioactivity concentration. In mice, for healthy and infarcted myocardium, ROIs were traced manually in the apex of the heart in the axial view. For remote myocardium, analysis was performed in myocardium 180° from the infarcted zone. In the mice aorta, sequential ROIs were drawn in the ascending aorta based on consecutive tomographic (CT) slices beginning from the root up to the brachiocephalic branch, merging point with the aortic arch. Voxel counts were converted to maximum standardized uptake values (SUVmax). In rabbits, PET images were fused with time-of-flight bright blood MRI angiography and ROIs were manually drawn on the infrarenal abdominal aorta in TOF images. The slice-by-slice maximum standard uptake values (SUVmax) were averaged across the whole aorta. […]

Data set [2] has as its system Apoe^−/− atherosclerotic mice. The data set is described as above. The conditions noted are these: tracer circulated 60 min, median, N = 4. The protocol: as §1, §2, §3
Where [3] appears, read: Apoe^−/− mice 12 weeks on Western Diet.

Like-named read-outs stand apart in the source and are kept apart here.

Consider `C[C@@H](O)[C@H](NC(=O)[C@@H]1CSSC[C@H](NC(=O)[C@@H](Cc2ccccc2)NC(=O)CN2CCN(CC(=O)O)CCN(CC(=O)O)CCN(CC(=O)O)CC2)C(=O)N[C@@H](Cc2ccc(O)cc2)C(=O)N[C@H](Cc2c[nH]c3ccccc23)C(=O)N[C@@H](CCCCN)C(=O)N[C@@H]([C@@H](C)O)C(=O)N1)C(=O)O` [[^64Cu]Cu-DOTATATE, metal not drawn], for which the values for the SUV at 1 h in data set [1] (setting [3]) and in data set [1] (healthy C57Bl/6 control mice) were 1.1 SUV and 0.5 SUV, respectively.
In the case of `OC[C@H]1OC(O)[C@H]([18F])[C@@H](O)[C@@H]1O` (stereo partly shown) [[^18F]F-FDG, [^18F]F-fluorodeoxyglucose], the SUVmax ascending aorta in data set [2] (setting [3]) turned out to be 1.2; in data set [2] (healthy C57Bl/6 control mice), 1.7.

The values above are taken from paper PMC9007951, “Systematically evaluating DOTATATE and FDG as PET immuno-imaging tracers of cardiovascular inflammation” (Scientific Reports, 2022).
